One compound from patent US20210236476A1, “METHODS OF TREATING CANCER WITH SMALL MOLECULE PD-L1 INHIBITORS” (CHEMOCENTRYX, INC., priority 2018, published 2021) can be followed below.

The structures appear in SMILES notation. Entries after “also recorded” stand apart in the source; their conditions may differ.

For assay [1], the target named is recombinant PD-L1 proteins (dimerization) (Homo sapiens, UniProt Q9NZQ7). Briefly: dimerization ELISA assay. The note with it: FIG. 1B. It counts as binding. As for the experimental part:
The activity of Compound 1.041 was assessed with an ELISA assay assessing the direct binding of recombinant PD-1 and PD-L1 proteins (FIG. 1A), a dimerization ELISA assay assessing the direct binding/dimerization of recombinant PD-L1 proteins (FIG. 1B), a cell based assay measuring the downstream signaling following the interaction of PD-1 and PD-L1 using a Luciferase reporter assay with cell lines overexpressing PD-1 and PD-L1 (FIG. 1C), and a mixed lymphocyte reaction assay measuring the functional outcome of upregulation of IFNg secretion, using allogenic primary human immune cells (FIG. 1D). Briefly, the mixed lymophocyte reaction assay was performed as follows: Dendritic cells and CD4+T Cells from unmatched donors were cultured together for 5 days in 96 well-flat bottom plates. Test compound was added as indicated at starting concentration of 1 μM with 1:4 dilutions with DMSO. Supernatants were harvested after 5 days of incubation and detection of human IFNg was performed by ELISA.

In assay [2] the test system is A375 human melanoma cells. Description: therapeutic dosing, A375 melanoma/PBMC co-implantation model. It is filed as in vivo, NOD/SCID mice. The note with it: established A375 tumors co-injected with human PBMCs; Compound 1.041 30mg/kg bid, anti-hPD-L1 5 mg/kg i.p., from day 28. An excerpt: (§1) Co-crystallized human PD-1/PD-L1 provided structural information from which we developed a number of small molecule checkpoint inhibitors. Active compounds were first profiled by an ELISA assay measuring inhibition of the PD-1/PD-L1 interaction, followed by functional cell-based reporter and mixed lymphocyte reaction (MLR) assays. PD-1/PD-L1 inhibitory compounds thus identified were further selected for in vivo model testing.
As briefly described in Example 1 the therapeutic activity of Compound 1.041 was tested using immunodeficient NOD/SCID mice (NOD.CB17-Prkdc^scid/NCrHsd) where A375 human melanoma cells were co-implanted along with human peripheral blood mononuclear cells (PBMCs). The mice were broken into 4 groups (n=7 each group): +PBMCs+Vehicle; +PBMCs+Compound 1.041; +PBMCs +Isotype antibody; and +PBMCs+anti-hPD-L1. Anti-hPD-L1 and isotype matched control antibody were injected i.p. at 5 mg/kg on day 28, 32, 36, 40, and 44. Compound 1.041 (30mg/kg) and vehicle dose (1% HPMC) p.i. twice daily (bid) starting on day 28.

Assay [3] relates to A375 human melanoma cells. Description: prophylactic dosing, A375 melanoma/PBMC co-implantation model. The note with it: Compound 1.041 30mg/kg bid, anti-hPD-L1 5 mg/kg i.p. It is filed as in vivo, NOD/SCID mice.
Description: as §1
As briefly described in Example 1, the prophylactic activity of Compound 1.041 was tested using immunodeficientp NOD/SCID mice (NOD.CB17-Prkdc^scid/NCrHsd) where A375 human melanoma cells were co-implanted along with human peripheral blood mononuclear cells (PBMCs). The mice were broken into 8 groups (n =10 each group): +/−PBMCs+Vehicle; +/−PBMCs+Compound 1.041; +/−PBMCs+Isotype antibody; and +/−PBMCs+anti-hPD-L1. Anti-hPD-L1 and isotype matched control antibody were injected i.p. at 5 mg/kg on day 1, 5, 9, 13, and 17. Compound 1.041 (30mg/kg) and vehicle dose (1% HPMC) p.i. twice daily (bid) starting on day 1.

For another assay, the system named is hCD11C+hCD3- cells. Briefly: PD-L1 Surface Expression Assay (FACS). It is filed as cell-based, human. The note with it: 16 hours, FIG. 2C. As for the experimental part:
Briefly, this assay was performed as follows: Cells were seeded in 12 well plates. Test compounds or antibodies were added for 16 hours at different concentrations. Cells were washed and stained with anti-human PD-L1, anti-human CD11C and anti-human CD3 for 20 minutes at RT before performing FACS analysis. Matching isotype was used as a control.

A further assay has as its system MDA-MB-231 cells. Briefly: flow cytometry of PD-L1 surface staining with acid wash. It counts as cell-based, human. The note with it: FIG. 3. The protocol:
To further investigate the possibility that Compound 1.041 reduces PD-L1 surface expression, flow cytometry analysis was formed on MDA-MB-231 cells after PD-L1 surface staining. An acid-wash protocol (cells were washed 3 times (5 minutes with shaking) with cold acid wash buffer (DMEM containing 0.2% BSA and adjusted to a 3.5 pH) followed by 3 washes (5 minutes with shaking) with ice cold PBS 1X) was used to confirm that differences in PD-L1 cell surface staining was not due to tested article interfering with detection antibody binding.

Assay [4] relates to human T-cells in A375 tumors. Description: tumor microenvironment analysis by flow cytometry (therapeutic dosing study). It is filed as in vivo, NOD/SCID mice. The note with it: compared to vehicle. As for the experimental part: The tumor microenvironement of vehicle and Compound 1.041 treatments from the above experiment were further explored by dissecting, mincing and digested with collagenase D the tumors from relevant mice for analysis by flow cytometry. Briefly, this assay was performed as follows: Excised tumors were finely chopped with a blade and digested for 60 minutes at 37° C. in MSS 1X containing 2mg/ml of collagenase D and 1U/ml of DNAse I. Single cells were washed and resuspended in FACS buffer (PBS 1X with 10% FBS and 0.1% azide) containing the following monoclonal antibodies (hCD4 in FITC, PD-L1 in PE, CD3 in PercP-Cy5.5, CD45 in PE-Cy7, PD-1 in APC, CD8a in APC-Cy7, CD69 in Pacific Blue and LIVE/DEAD fixable Aqua stain). Isotype-matched controls were used as negative controls. Flow cytometry data were acquired with a FACSCanto II (BD Biosciences, San Jose, Calif.) cytometer and analyzed using FlowJO. […] The flow cytometer was gated on live cells singlets, hCD45^+ and hCD3^+ cells.

For assay [5], the target named is T1, human PD-L1 / human PD-1 interaction (Homo sapiens, UniProt Q9NZQ7).
T1 construct: purchased R&D (PD-L1); ACRO Biosystems (PD-1, biotin)
T1 sequence (Q9NZQ7 19-239 limits assumed): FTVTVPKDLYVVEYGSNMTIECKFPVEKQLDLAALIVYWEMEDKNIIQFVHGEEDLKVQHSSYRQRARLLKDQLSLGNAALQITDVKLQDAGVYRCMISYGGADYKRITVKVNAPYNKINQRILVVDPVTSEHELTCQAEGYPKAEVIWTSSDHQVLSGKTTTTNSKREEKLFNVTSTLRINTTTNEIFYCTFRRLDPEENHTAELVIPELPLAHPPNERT
Description: ELISA of PD-1/PD-L1 interaction. It counts as binding. The note with it: FIG. 1, stated collectively for the assays. A digest of the protocol:
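Plates coated with 1 μg/mL human PD-L1 and blocked with BSA; serially diluted (1:5) compounds plus biotinylated human PD-1 (0.3 μg/mL) incubated 1 h at 37° C. Bound PD-1 detected with streptavidin-HRP/TMB, absorbance at 450 nm.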

In another assay the test system is human PBMCs. Description: T-Cell Exhaustion assay (SEB). It is filed as cell-based. Particulars: human PBMCs stimulated with 100ng/mL SEB for three days; FIG. 2A.

Chain of recombinant PD-L1 proteins (dimerization) (Q9NZQ7 19-239 limits assumed): as above

As for `C[C@@](CO)(NCc1cc(Cl)c(O[C@H]2CCc3c(-c4cccc(OCCCN5CC(O)C5)c4Cl)cccc32)cc1OCc1cncc(C#N)c1)C(=O)O` [Compound 1.041, (S)-2-((5-chloro-4-(((S)-4(2-chloro-3-(3-(3-hydroxyazetidin-1-yl)propoxy)phenyl)-2,3-dihydro-1H-inden-1-yl)oxy)-2-((5-cyanopyridin-3-yl)methoxy)benzyl)amino)-3-hydroxy-2-methylpropanoic acid], the “induction of hPD-L1 dimerization” value in assay [1] is listed as “induction of hPD-L1 dimerization”. Moreover, the relative tumor growth result in assay [2] is listed as “reduced tumor growth in vivo to a similar extent as the positive control anti-human PD-L1 antibody; also recorded: significant inhibitory effect”. Further, the tumor growth result is “reduced tumor growth in vivo to a similar extent as the positive control anti-human PD-L1 antibody; also recorded: inhibited tumor growth” in assay [3] (A375 cells + co-injected hPBMCs, from day 1) and “no effect on A375 tumor growth” in assay [3] (A375 cells alone (no hPBMCs)). Further, the PD-L1 surface expression entry in the assay on hCD11C+hCD3- cells is listed as “significantly reduced PD-L1 surface expression”. Moreover, the PD-L1 surface staining entry in the assay with MDA-MB-231 cells is on record as “reduced PD-L1 surface staining intensive; also recorded: PD-L1 expression decreases”. In assay [4] (human CD8+ T-cells from treated mice, FIG. 10), the “PD-1 expression (mean fluorescence intensity)” value is “reduction in PD-1 expression”. In assay [4] (tumors, FIG. 9A-B), the “percentage of hCD8+ T-Cells in contrast to hCD4+ T-Cells” value is reported as “increases the percentage of hCH8^+ T-cells relative to hCH4^+ T-cells”. Moreover, the “ratio of hCD8+/hCD4+ T-cells” value in assay [4] (tumors, FIG. 9C) is reported as “significantly higher CD8^+ T-Cell/CD4^+ T-cell ratio”. Further, in assay [5], the “blocking of PD-1/PD-L1 interaction” value was “highly potent and blocks PD-1/PD-L1 interaction”. In the assay with human PBMCs, the “reversal of T cell exhaustion phenotype (IFN-g induction by SEB)” value is given as “reversed T cell exhaustion phenotype; also recorded: reverses T-Cell exhaustion phenotype”.
